Data: patent US7138361B2, “Herbicidal heterocycles” (E. I. du Pont de Nemours and Company, priority 2000, dated 2006)

Key:
Type in all cases: in vivo
[1] = test system: cocklebur (Xanthium strumarium); experiment: Test B postemergence
Method in brief: (§1)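 Greenhouse test: chemicals are formulated in a surfactant-containing non-phytotoxic solvent and applied either preemergence to planted seeds or postemergence to plants 2 to 18 cm tall. Response is rated visually versus controls after 13 to 15 days, 0 meaning no effect and 100 complete control.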

[2] = test system: crabgrass (Digitaria sanguinalis); experiment: Test B postemergence; conditions: 13 to 15 days
Method in brief: as §1

[3] = test system: lambsquarters (Chenopodium album); experiment: Test B postemergence
Method in brief: as §1

wild oat (Avena fatua) = experiment: Test B postemergence
Method in brief: as §1

Nightshade = experiment: Test C preemergence
From the text: (§2) Seeds of plant species selected from bermudagrass (Cynodon dactylon), Surinam grass (Brachiaria decumbens), cocklebur (Xanthium strumarium), corn (Zea mays), crabgrass (Digitaria sanguinalis), woolly cupgrass (Eriochloa villosa), giant foxtail (Setaria faberii), goosegrass (Eleusine indica), johnsongrass (Sorghum halepense), kochia (Kochia scoparia), lambsquarters (Chenopodium album), morningglory (Ipomoea hederacea), yellow nutsedge (Cyperus esculentus), pigweed (Amaranthus retroflexus), common ragweed (Ambrosia elatior), soybean (Glycine max) and velvetleaf (Abutilon theophrasti) were planted and treated preemergence with test chemicals formulated in a non-phytotoxic solvent mixture which included a surfactant.
(§3) At the same time, plants selected from these crop and weed species and also winter barley (Hordeum vulgare), blackgrass (Alopecurus myosuroides), canary grass (Phalaris minor), chickweed (Stellaria media), downy brome (Bromus tectorum), green foxtail (Setaria viridis), Italian ryegrass (Lolium multiflorum), wheat (Triticum aestivum), wild oat (Avena fatua) and windgrass (Apera spica-venti) were treated with postemergence applications of some of the test chemicals formulated in the same manner. Plants ranged in height from 2 to 18 cm (1- to 4-leaf stage) for postemergence treatments. Plant species in the flooded paddy test consisted of rice (Oryza saliva), smallflower flatsedge (Cyperus difformis), duck salad (Heteranthera limosa) and barnyardgrass (Echinochloa crus-galli) grown to the 2-leaf stage for testing. Treated plants and controls were maintained in a greenhouse for 12 to 14 days, after which time all species were compared to controls and visually evaluated. Plant response ratings, summarized in Table C, are based on a scale of 0 to 100 where 0 is no effect and 100 is complete control. A dash (-) response means no test result.

[4] = test system: Surinam grass (Brachiaria decumbens); experiment: Test C preemergence; conditions: for Plant response rating (0 to 100), Surinam grass: visual evaluation after 12 to 14 days
From the text: as §2, §3

[5] = test system: bermudagrass (Cynodon dactylon); experiment: Test C preemergence; conditions: for Plant response rating (0 to 100 where 0 is no effect and 100 is complete control), Bermudagrass: visual evaluation after 12 to 14 days
From the text: as §2, §3

[6] = test system: cocklebur (Xanthium strumarium); experiment: Test C preemergence; conditions: for Plant response rating (0 to 100), Cocklebur: visual evaluation after 12 to 14 days
From the text: as §2, §3

[7] = test system: common ragweed (Ambrosia elatior); experiment: Test C preemergence; conditions: for Plant response rating (0 to 100), Ragweed, Common: Rate 500 g/ha, visual evaluation after 12 to 14 days
From the text: as §2, §3

corn (Zea mays) = experiment: Test C preemergence; conditions: for Plant response rating (0 to 100), Corn: visual evaluation after 12 to 14 days
From the text: as §2, §3

[8] = test system: giant foxtail (Setaria faberii); experiment: Test C preemergence; conditions: for Plant response rating (0 to 100), Foxtail, Giant: visual evaluation after 12 to 14 days
From the text: as §2, §3

[9] = test system: johnsongrass (Sorghum halepense); experiment: Test C preemergence; conditions: for Plant response rating (0 to 100), Johnsongrass: visual evaluation after 12 to 14 days
From the text: as §2, §3

kochia (Kochia scoparia) = experiment: Test C preemergence; conditions: for Plant response rating (0 to 100), Kochia: visual evaluation after 12 to 14 days
From the text: as §2, §3

[10] = test system: lambsquarters (Chenopodium album); experiment: Test C preemergence; conditions: for Plant response rating (0 to 100), Lambsquarters: Rate 500 g/ha, visual evaluation after 12 to 14 days
From the text: as §2, §3

[11] = test system: pigweed (Amaranthus retroflexus); experiment: Test C preemergence; conditions: for Plant response rating (0 to 100), Pigweed: Rate 500 g/ha, visual evaluation after 12 to 14 days
From the text: as §2, §3

soybean (Glycine max) = experiment: Test C preemergence; conditions: for Plant response rating (0 to 100), Soybean: Rate 500 g/ha, visual evaluation after 12 to 14 days
From the text: as §2, §3

[12] = test system: velvetleaf (Abutilon theophrasti); experiment: Test C preemergence; conditions: for Plant response rating (0 to 100), Velvetleaf: Rate 500 g/ha, visual evaluation after 12 to 14 days
From the text: as §2, §3

[13] = test system: woolly cupgrass (Eriochloa villosa); experiment: Test C preemergence; conditions: for Plant response rating (0 to 100), Cupgrass, Woolly: visual evaluation after 12 to 14 days
From the text: as §2, §3

Sunflower [14] = experiment: Test C preemergence; conditions: Rate 500 g/ha, visual evaluation after 12 to 14 days
Sunflower [15] = experiment: Test C preemergence; conditions: Rate 125 g/ha; scale 0 to 100, 0 no effect, 100 complete control
From the text: as §2, §3

[16] = Rate 125 g/ha, scale 0 (no effect) to 100 (complete control), 13 to 15 days
[17] = Rate 500 g/ha, scale 0 to 100, 0 is no effect, 100 is complete control, 13 to 15 days
[18] = Rate 125 g/ha, scale 0 to 100, 0 no effect, 100 complete control
[19] = Rate 250 g/ha, scale 0 to 100, 0 no effect, 100 complete control
[20] = Rate 62 g/ha, scale 0 to 100, 0 no effect, 100 complete control
[21] = preemergence, Rate 125 g/ha, scale 0 to 100, 0 no effect, 100 complete control
[22] = preemergence, Rate 250 g/ha, scale 0 to 100, 0 no effect, 100 complete control
[23] = preemergence, Rate 62 g/ha, scale 0 to 100

CCC(C)c1ccn(C2OCN(c3cccc(OC(F)(F)F)c3)C2=O)n1 (stereo not shown) [Compound 67]
20: Plant response rating (0 to 100), Cocklebur ([6]; preemergence, Rate 250 g/ha) | Plant response rating, Ragweed, Common [7, 21]
70: Plant response rating, Nightshade (Nightshade; [18]) | Plant response rating (0 to 100), Ragweed, Common ([7]; preemergence) | Plant response rating, Ragweed, Common [7, 22] | Plant response rating (0 to 100), Foxtail, Giant ([8]; preemergence, Rate 250 g/ha) | Plant response rating, Cupgrass, Woolly [13, 21]
30: Plant response rating, Johnsongrass [9, 20] | Plant response rating (0 to 100), Velvetleaf ([12]; preemergence) | Plant response rating (0 to 100), Sunflower (Sunflower [14])
0: Plant response rating, Cocklebur [1, 16] | Plant response rating, Wild Oat (wild oat (Avena fatua); [16]) | Plant response rating, Wild Oat (wild oat (Avena fatua); [17]) | Plant response rating, Nightshade (Nightshade; Rate 62 g/ha; scale 0 to 100, 0 no effect, 100 complete control) | Plant response rating, Surinam grass [4, 20] | Plant response rating, Surinam grass [4, 21] | Plant response rating, Cocklebur [6, 20] | Plant response rating, Cocklebur [6, 21] | Plant response rating, Corn (corn (Zea mays); [20]) | Plant response rating (0 to 100), Corn (corn (Zea mays); preemergence, Rate 250 g/ha) | Plant response rating, Corn (corn (Zea mays); [21]) | Plant response rating (0 to 100), Soybean (soybean (Glycine max); preemergence) | Plant response rating, Soybean (soybean (Glycine max); [21]) | Plant response rating, Soybean (soybean (Glycine max); [22]) | Plant response rating, Velvetleaf [12, 22]
90: Plant response rating, Lambsquarters [3, 16] | Plant response rating, Kochia (kochia (Kochia scoparia); [20]) | Plant response rating (0 to 100), Kochia (kochia (Kochia scoparia); preemergence, Rate 250 g/ha) | Plant response rating, Pigweed [11, 21] | Plant response rating, Cupgrass, Woolly [13, 20]
100: Plant response rating, Crabgrass ([2]; Rate 500 g/ha, scale 0 to 100, 0 is no effect, 100 is complete control) | Plant response rating, Lambsquarters [3, 17] | Plant response rating (0 to 100), Surinam grass ([4]; preemergence, Rate 250 g/ha) | Plant response rating (0 to 100), Surinam grass ([4]; preemergence, Rate 500 g/ha) | Plant response rating, Bermudagrass [5, 20] | Plant response rating (0 to 100 where 0 is no effect and 100 is complete control), Bermudagrass ([5]; preemergence, Rate 250 g/ha) | Plant response rating (0 to 100 where 0 is no effect and 100 is complete control), Bermudagrass ([5]; preemergence, Rate 500 g/ha) | Plant response rating, Bermudagrass [5, 21] | Plant response rating (0 to 100), Corn (corn (Zea mays); preemergence, Rate 500 g/ha) | Plant response rating, Foxtail, Giant [8, 20] | Plant response rating (0 to 100), Foxtail, Giant ([8]; preemergence, Rate 500 g/ha) | Plant response rating, Foxtail, Giant [8, 21] | Plant response rating (0 to 100), Johnsongrass ([9]; preemergence, Rate 250 g/ha) | Plant response rating (0 to 100), Johnsongrass ([9]; preemergence, Rate 500 g/ha) | Plant response rating (0 to 100), Kochia (kochia (Kochia scoparia); preemergence, Rate 500 g/ha) | Plant response rating, Kochia (kochia (Kochia scoparia); [21]) | Plant response rating, Lambsquarters [10, 20] | Plant response rating (0 to 100), Lambsquarters ([10]; preemergence) | Plant response rating, Lambsquarters [10, 21] | Plant response rating, Lambsquarters [10, 22] | Plant response rating (0 to 100), Cupgrass, Woolly ([13]; preemergence, Rate 250 g/ha) | Plant response rating (0 to 100), Cupgrass, Woolly ([13]; preemergence, Rate 500 g/ha)
60: Plant response rating, Cocklebur [1, 17] | Plant response rating, Johnsongrass [9, 21]
80: Plant response rating, Nightshade (Nightshade; [19]) | Plant response rating (0 to 100), Pigweed ([11]; preemergence) | Plant response rating, Pigweed [11, 22]
50: Plant response rating, Crabgrass ([2]; Rate 125 g/ha, scale 0 (no effect) to 100 (complete control)) | Plant response rating (0 to 100), Cocklebur ([6]; preemergence, Rate 500 g/ha) | Plant response rating, Velvetleaf [12, 21]

Cc1ccc(N2CCC(n3ccc(C(C)(C)C)n3)C2=O)cc1I (stereo not shown) [Compound 122]
90: Plant response rating, Cocklebur [1, 17] | Plant response rating, Lambsquarters [3, 18]
100: Plant response rating, Bermudagrass [5, 18] | Plant response rating, Bermudagrass [5, 23] | Plant response rating (0 to 100 where 0 is no effect and 100 is complete control), Bermudagrass ([5]; preemergence, Rate 500 g/ha) | Plant response rating, Bermudagrass [5, 22] | Plant response rating (0 to 100), Ragweed, Common ([7]; preemergence) | Plant response rating, Kochia (kochia (Kochia scoparia); [18]) | Plant response rating, Kochia (kochia (Kochia scoparia); [23]) | Plant response rating (0 to 100), Kochia (kochia (Kochia scoparia); preemergence, Rate 500 g/ha) | Plant response rating, Kochia (kochia (Kochia scoparia); [22]) | Plant response rating, Lambsquarters [10, 18] | Plant response rating, Lambsquarters [10, 23] | Plant response rating (0 to 100), Lambsquarters ([10]; preemergence) | Plant response rating, Lambsquarters [10, 22] | Plant response rating (0 to 100), Pigweed ([11]; preemergence) | Plant response rating (0 to 100), Cupgrass, Woolly ([13]; preemergence, Rate 500 g/ha) | Plant response rating, Cupgrass, Woolly [13, 22]
60: Plant response rating (0 to 100), Surinam grass ([4]; preemergence, Rate 500 g/ha)
20: Plant response rating, Surinam grass [4, 22] | Plant response rating, Ragweed, Common [7, 22] | Plant response rating (0 to 100), Johnsongrass ([9]; preemergence, Rate 500 g/ha) | Plant response rating, Pigweed [11, 18] | Plant response rating, Pigweed [11, 22] | Plant response rating (0 to 100), Velvetleaf ([12]; preemergence) | Plant response rating, Velvetleaf [12, 22] | Plant response rating, Cupgrass, Woolly [13, 18]
10: Plant response rating, Velvetleaf [12, 18]
0: Plant response rating, Wild Oat (wild oat (Avena fatua); [18]) | Plant response rating, Nightshade (Nightshade; Rate 62 g/ha, scale 0 to 100) | Plant response rating, Nightshade (Nightshade; Rate 125 g/ha; scale 0 to 100, 0 no effect, 100 complete control) | Plant response rating, Sunflower (Sunflower [15]) | Plant response rating, Surinam grass [4, 18] | Plant response rating, Surinam grass [4, 23] | Plant response rating, Cocklebur [6, 18] | Plant response rating, Cocklebur [6, 23] | Plant response rating (0 to 100), Cocklebur ([6]; preemergence, Rate 500 g/ha) | Plant response rating, Cocklebur [6, 22] | Plant response rating, Ragweed, Common [7, 18] | Plant response rating, Ragweed, Common [7, 23] | Plant response rating, Corn (corn (Zea mays); [18]) | Plant response rating, Corn (corn (Zea mays); [23]) | Plant response rating (0 to 100), Corn (corn (Zea mays); preemergence, Rate 500 g/ha) | Plant response rating, Corn (corn (Zea mays); [22]) | Plant response rating, Foxtail, Giant [8, 18] | Plant response rating, Foxtail, Giant [8, 23] | Plant response rating (0 to 100), Foxtail, Giant ([8]; preemergence, Rate 500 g/ha) | Plant response rating, Foxtail, Giant [8, 22] | Plant response rating, Johnsongrass [9, 18] | Plant response rating, Johnsongrass [9, 23] | Plant response rating, Johnsongrass [9, 22] | Plant response rating, Pigweed [11, 23] | Plant response rating, Soybean (soybean (Glycine max); [18]) | Plant response rating, Soybean (soybean (Glycine max); [23]) | Plant response rating (0 to 100), Soybean (soybean (Glycine max); preemergence) | Plant response rating, Soybean (soybean (Glycine max); [22]) | Plant response rating, Velvetleaf [12, 23] | Plant response rating, Cupgrass, Woolly [13, 23]
30: Plant response rating, Cocklebur [1, 18] | Plant response rating, Nightshade (Nightshade; [19]) | Plant response rating (0 to 100), Sunflower (Sunflower [14])
